Key:
[1] = tested on: fibroblast 3T3 cells; test: Cell migration across a scratched boundary, LPX105 variants; assay type: cell-based; details: 72 hours after treatment, control group PBS
Experimental: Using the method described in Example 1-2 above, the cell migration promotion of LPX105, LPH105, and LPHS105 was confirmed. Specifically, in order to confirm the cell migration effect, fibroblast 3T3 cells were treated with LPX105, LPH105, and LPHS105 peptides, incubated for 1 hour, and then washed. Thereafter, the migration of cells across a scratched boundary was measured 72 hours after treatment. The number of cells that migrated across a scratch line was measured by image analysis using ImageJ.

[2] = tested on: diabetes model mice (db/db); test: Diabetic wound healing of LPX105 variants in db/db mice; assay type: in vivo, mouse; details: 3 μg daily for 10 days, control group PBS
Experimental: By using the method described in Example 2-4 above, the diabetic wound healing effect of LPX105, LPH105, and LPHS105 was evaluated. Specifically, the skins of diabetes model mice (db/db) (n=14 each) were punched with an 8 mm diameter puncher and treated with LPX105, LPH105 and LPHS105 (3 μg) or PBS daily for 10 days and subjected to wound dressing. The wound healing effect was confirmed by analyzing an initial wound area and a re-epithelialization area using ImageJ (mean SEM n=3, *; p<0.05).

[3] = tested on: NIH3T3 cells; test: Cell migration effects, Table 1; assay type: cell-based, mouse; details: vehicle = 1
Experimental: Various variants of the LPX peptides were prepared as illustrated in FIG. 18. Specifically, various constructs (26 constructs including 101) were prepared by adding various mutations (substitution of a CPP region, amino acid mutation of an RNA binding portion and a zinc finger structure, and addition of his-tag) to the structure of LPX101 in FIG. 19 (FIG. 20).

In the case of “LPH105: LPX105 variant of SEQ ID NO: 39, Histidine tag insertion (HHHHHHRRPKGKSMQKRRSKGDRCYNCGGLDHHAKECKL; LPH105)”, the cell migration [1] is reported as “increased cell migration more than LPX105” and the diabetic wound healing [2] is reported as “accelerated the diabetic wound healing more significantly than LPX105”.
With “LPHS105: LPX105 variant of SEQ ID NO: 40, zinc finger region mutations and Histidine tag insertion (HHHHHHRRPKGKSMQKRRSKGDRCYNCGELDHHAKECKL; LPHS105)” the cell migration [1] was “increased cell migration more than LPX105” and the diabetic wound healing [2] was “accelerated the diabetic wound healing more significantly than LPX105”.
For “LPX104: cell-penetrating peptide of SEQ ID NO: 14, containing SEQ ID NO: 7 with an RNA binding site in zinc finger 2 region (ERRPKGKSMQKRRSKGDRCYNCGGLDHHAKECKLPPQPKKCH; LPX104)”, the “Effects on cell migration (3 expts)” value ([3]; 1 uM) was 1.3 and the “Effects on cell migration (3 expts)” value ([3]; 5 uM) was 1.3.
In the case of “LPX105: cell-penetrating peptide of SEQ ID NO: 37 (RRPKGKSMQKRRSKGDRCYNCGGLDHHAKECKL; LPX105)”, the cell migration [1] is reported as “significantly promoted cell migration” and the diabetic wound healing [2] is reported as “accelerated the diabetic wound healing”.
